This note sets out measurements from US9850203B2, “Autotaxin inhibitor compounds” (PharmAkea, Inc., priority 2013, dated 2017).

A value given as a limit tells only on which side of the number the result lay.

By IC50 is commonly meant the concentration needed to halve the response being measured. Higher therefore signals weaker potency in that assay.

The experiment has as its target human autotaxin (ATX) (Homo sapiens (Human), UniProt Q13822). The experiment in a line: Human Autotaxin Assay. It is filed as biochemical. The settings on record: concentrated conditioned media from Hep3B cells; LPC substrate, choline release. The procedure:
ATX activity is assayed in concentrated conditioned media from Hep3B human hepatocellular carcinoma cells by measuring the amount of choline released from the substrate, lysophosphatidylcholine (LPC) as it is cleaved to LPA. Conditioned media is collected from confluent Hep3B cells and concentrated 20-fold using Centriprep-30 filter devices (Millipore). To assay for autotaxin inhibition, 10-20 μL of the concentrated conditioned media is incubated with 2.5 μL of a test compound in DMSO and 72.5-82.5 μL lyso-PLD buffer (100 mM Tris pH 9, 500 mM NaCl, 5 mM MgCl2, 5 mM CaCl2, 0.05% Triton X-100 in the presence or absence of 0.2% fatty-acid-free human serum albumin) for 15 min at 37° C. After the 15 min incubation, 5 uL of 2 mM LPC (14:0; Avanti Polar Lipids Cat#855575C) diluted in lyso-PLD buffer is added for a final concentration of 100 uM and the incubation continues for 1.5-3 hours at 37° C.
Turning to `Cc1c(Sc2cccc(C(=O)O)c2)c2ccc(Cl)c(F)c2n1CC(=O)N1CCC2(CC1)CC(=O)N2` [Compound 1-41, 3-((6-Chloro-7-fluoro-2-methyl-1-(2-oxo-2-(2-oxo-1,7-diazaspiro[3.5]nonan-7-yl)ethyl)-1H-indol-3-yl)thio)benzoic acid], the IC50 was at most 500 nM. The value for `O=C(O)c1cccc(Sc2c(Cl)n(CCN3CC4(CC4)c4ccccc43)c3c(F)c(Cl)ccc23)c1F` [Compound 5-2, Sodium 3-((2,6-dichloro-7-fluoro-1-(2-(spiro[cyclopropane-1,3′-indolin]-1′-yl)ethyl)-1H-indol-3-yl)thio)-2-fluorobenzoate] was at most 500 nM; that for `Cc1c(Sc2cccc(C(=O)O)c2)c2ccc(Cl)c(F)c2n1CC(=O)N1CC2(CNC(=O)C2)C1` [Compound 1-49, 3-((6-Chloro-7-fluoro-2-methyl-1-(2-oxo-2-(7-oxo-2,6-diazaspiro[3,4]octan-2-yl)ethyl)-1H-indol-3-yl)thio)benzoic acid] was at most 500 nM; that for `Cc1c(Sc2cccc(C(=O)O)c2)c2ccc(Cl)c(F)c2n1CC(=O)Nc1cc(Cl)cc(Cl)c1` [Compound 1-4, 3-((6-Chloro-1-(2-((3,5-dichlorophenyl)amino)-2-oxoethyl)-7-fluoro-2-methyl-1H-indol-3-yl)thio)benzoic acid] was over 3000 nM. The compound `Cc1c(Sc2cccc(C(=O)O)c2F)c2ccc(Cl)c(F)c2n1CC(=O)N1C[C@H](O)[C@@H](N2CCOCC2)C1` [Compound 2-65, 3-((6-Chloro-7-fluoro-1-(2-((3S,4S)-3-hydroxy-4-morpholinopyrrolidin-1-yl)-2-oxoethyl)-2-methyl-1H-indol-3-yl)thio)-2-fluorobenzoic acid] yielded an IC50 of at most 500 nM.

On to `Cc1c(Sc2cccc(C(=O)O)c2F)c2ccc(Cl)c(F)c2n1CC(=O)N1C[C@H](O)[C@@H](N(C)C)C1` [Compound 2-69, 3-((6-Chloro-1-(2-((3S,4S)-3-(dimethylamino)-4-hydroxypyrrolidin-1-yl)-2-oxoethyl)-7-fluoro-2-methyl-1H-indol-3-yl)thio)-2-fluorobenzoic acid], for which the IC50 is at most 500 nM.

Regarding `Cc1c(Sc2cccc(C(=O)O)c2)c2ccc(Cl)c(F)c2n1CC(=O)N1CCC2(CCNC(=O)CC2)CC1` [Compound 1-53, 3-((6-Chloro-7-fluoro-2-methyl-1-(2-oxo-2-(10-oxo-3,9-diazaspiro[5.6]dodecan-3-yl)ethyl)-1H-indol-3-yl)thio)benzoic acid], the IC50 is at most 500 nM. `Cc1c(Sc2cccc(C(=O)O)c2)c2ccc(Cl)c(F)c2n1CC(=O)N1CCC2(CC1)CNC(=O)C2` [Compound 1-45, 3-((6-Chloro-7-fluoro-2-methyl-1-(2-oxo-2-(3-oxo-2,8-diazaspiro[4.5]decan-8-yl)ethyl)-1H-indol-3-yl)thio)benzoic acid] yielded an IC50 of at most 500 nM. The value for `Cc1c(Sc2cccc(C(=O)O)c2)c2ccc(Cl)c(F)c2n1CC(=O)Nc1cnoc1` [Compound 1-11, 3-((6-Chloro-7-fluoro-1-(2-(isoxazol-4-ylamino)-2-oxoethyl)-2-methyl-1H-indol-3-yl)thio)benzoic acid] was 500 to 3000 nM; that for `Cc1c(Sc2cccc(C(=O)O)c2)c2ccc(Cl)c(F)c2n1CC(=O)N1CCC(c2ccc(F)cc2)C1` (single isomer, unassigned; enantiomer a) [Compound 1-74, 3-((6-Chloro-7-fluoro-1-(2-(3-(4-fluorophenyl)pyrrolidin-1-yl)-2-oxoethyl)-2-methyl-1H-indol-3-yl)thio)benzoic acid Enantiomer A] was 500 to 3000 nM.

On to `O=C(O)c1cccc(Sc2c(C3CC3)n(CC(=O)N3CCc4ccccc43)c3c(F)c(Cl)ccc23)c1F` [Compound 4-29, Sodium 3-((6-chloro-2-cyclopropyl-7-fluoro-1-(2-(indolin-1-yl)-2-oxoethyl)-1H-indol-3-yl)thio)-2-fluorobenzoate], for which the IC50 is at most 500 nM. Compound `Cc1c(Sc2cccc(C(=O)O)c2)c2ccc(Cl)c(F)c2n1CC(=O)NC(C)C` [Compound 1-1, 3-((6-Chloro-7-fluoro-1-(2-(isopropylamino)-2-oxoethyl)-2-methyl-1H-indol-3-yl)thio)benzoic acid] returned an IC50 of at most 500 nM. The value for `Cc1c(Sc2cccc(C(=O)O)c2)c2ccc(Cl)c(F)c2n1CC(=O)N1CCC(c2cnn(C)c2)C1` (stereo not drawn) [Compound 1-96, 3-((6-Chloro-7-fluoro-2-methyl-1-(2-(3-(1-methyl-1H-pyrazol-4-yl)pyrrolidin-1-yl)-2-oxoethyl)-1H-indol-3-yl)thio)benzoic acid] was at most 500 nM. As for `Cc1c(Sc2cccc(C(=O)O)c2)c2ccc(Cl)c(F)c2n1CC(=O)N1CC(C)(C)c2ccc(F)cc21` [Compound 1-34, 3-((6-Chloro-7-fluoro-1-(2-(6-fluoro-3,3-dimethylindolin-1-yl)-2-oxoethyl)-2-methyl-1H-indol-3-yl)thio)benzoic acid], the IC50 is at most 500 nM. The figure for `Cc1c(Sc2cccc(C(=O)O)c2)c2ccc(Cl)c(F)c2n1CC(=O)N1CC(C)(O)C1` [Compound 1-52, 3-((6-Chloro-7-fluoro-1-(2-(3-hydroxy-3-methylazetidin-1-yl)-2-oxoethyl)-2-methyl-1H-indol-3-yl)thio)benzoic acid] is at most 500 nM. The value for `Cc1c(Sc2cccc(C(=O)O)c2)c2ccc(Cl)c(F)c2n1CC(=O)N1CCC(CCn2cccn2)CC1` [Compound 1-61, 3-((1-(2-(4-(2-(1H-Pyrazol-1-yl)ethyl)piperidin-1-yl)-2-oxoethyl)-6-chloro-7-fluoro-2-methyl-1H-indol-3-yl)thio)benzoic acid] was at most 500 nM; that for `Cc1c(Sc2cccc(C(=O)O)c2F)c2ccc(Cl)c(F)c2n1CC(=O)N1CCC(C)(O)C1` (stereo not drawn) [Compound 2-61, 3-((6-Chloro-7-fluoro-1-(2-(3-hydroxy-3-methylpyrrolidin-1-yl)-2-oxoethyl)-2-methyl-1H-indol-3-yl)thio)-2-fluorobenzoic acid] was at most 500 nM.

Consider `Cc1c(Sc2cccc(C(=O)O)c2)c2ccc(Cl)c(F)c2n1CC(=O)N1CC2(CC2)c2ccccc21` [Compound 1-31, 3-((6-Chloro-7-fluoro-2-methyl-1-(2-oxo-2-(spiro[cyclopropane-1,3′-indolin]-1′-yl)ethyl)-1H-indol-3-yl)thio)benzoic acid], for which the IC50 is at most 500 nM. The figure for `Cc1c(Sc2cccc(C(=O)O)c2)c2ccc(Cl)c(F)c2n1CC(=O)N1CCCC1` [Compound 1-9, 3-((6-Chloro-7-fluoro-2-methyl-1-(2-oxo-2-(pyrrolidin-1-yl)ethyl)-1H-indol-3-yl)thio)benzoic acid] is at most 500 nM; for `Cc1c(Sc2cccc(C(=O)O)c2)c2ccc(Cl)c(F)c2n1CC(=O)N1CCCC(Cc2ccc(F)cc2)C1` (stereo not drawn) [Compound 1-15, 3-((6-Chloro-7-fluoro-1-(2-(3-(4-fluorobenzyl)piperidin-1-yl)-2-oxoethyl)-2-methyl-1H-indol-3-yl)thio)benzoic acid] it is 500 to 3000 nM; for `Cc1c(Sc2cccc(C(=O)O)c2)c2ccc(Cl)c(F)c2n1CC(=O)N1CC2C(C1)C2C(N)=O` [Compound 1-51, 3-((1-(2-((1R,5S,6R)-6-Carbamoyl-3-azabicyclo[3.1.0]hexan-3-yl)-2-oxoethyl)-6-chloro-7-fluoro-2-methyl-1H-indol-3-yl)thio)benzoic acid] it is at most 500 nM. `Cc1c(Sc2cccc(C(=O)O)n2)c2ccc(Cl)c(F)c2n1CC(=O)N1CC2(CCC2)c2c(F)cccc21` [Compound 3-104, 6-((6-Chloro-7-fluoro-1-(2-(4′-fluorospiro[cyclobutane-1,3′-indolin]-1′-yl)-2-oxoethyl)-2-methyl-1H-indol-3-yl)thio)picolinic acid]: the IC50 was at most 500 nM. The figure for `Cc1c(Sc2cccc(C(=O)O)c2)c2ccc(Cl)c(F)c2n1CC(=O)N1CCC(Cc2ccc(C(F)(F)F)cc2)C1` (stereo not drawn) [Compound 1-78, 3-((6-Chloro-7-fluoro-2-methyl-1-(2-oxo-2-(3-(4-(trifluoromethyl)benzyl)pyrrolidin-1-yl)ethyl)-1H-indol-3-yl)thio)benzoic acid] is 500 to 3000 nM.

The compound `Cc1c(Sc2cccc(C(=O)O)c2)c2ccc(Cl)c(F)c2n1CC(=O)N1CCCC2(CNC(=O)C2)C1` (stereo not drawn) [Compound 1-35, 3-((6-Chloro-7-fluoro-2-methyl-1-(2-oxo-2-(3-oxo-2,7-diazaspiro[4.5]decan-7-yl)ethyl)-1H-indol-3-yl)thio)benzoic acid] came in with an IC50 of at most 500 nM.

The compound `Cc1c(Sc2cccc(C(=O)O)c2)c2ccc(Cl)c(F)c2n1CC(=O)N1CCC2(CC1)CC2C(=O)N1CCCC1` (stereo not drawn) [Compound 1-40, 3-((6-Chloro-7-fluoro-2-methyl-1-(2-oxo-2-(1-(pyrrolidine-1-carbonyl)-6-azaspiro[2.5]octan-6-yl)ethyl)-1H-indol-3-yl)thio)benzoic acid] registered an IC50 of 500 to 3000 nM.

In turn, `Cc1c(Sc2cccc(C(=O)O)c2)c2ccc(Cl)c(F)c2n1CC(=O)N1CCC(Cc2ccc(F)cc2)C1` (single isomer, unassigned; enantiomer a) [Compound 1-65, 3-((6-Chloro-7-fluoro-1-(2-(3-(4-fluorobenzyl)pyrrolidin-1-yl)-2-oxoethyl)-2-methyl-1H-indol-3-yl)thio)benzoic acid Enantiomer A] had an IC50 of at most 500 nM.

`Cc1c(Sc2cccc(C(=O)O)c2)c2ccc(Cl)c(F)c2n1CC(=O)N1CCC2(CC2)C1` [Compound 1-95, 3-((6-Chloro-7-fluoro-2-methyl-1-(2-oxo-2-(5-azaspiro[2.4]heptan-5-yl)ethyl)-1H-indol-3-yl)thio)benzoic acid] yielded an IC50 of at most 500 nM.
